Experimental data published in US20110240014A1, “SUBSTRATES FOR DRUG DELIVERY DEVICE AND METHODS OF PREPARING AND USE” (ALEXZA PHARMACEUTICALS, INC., priority 2003, published 2011).
“Also recorded” adds a separate entry of the source. Values belong to the compound of their own block, whether it stands above or below them.

Key:
[1] = Vaporization of flunisolide film from stainless steel foil substrates (304, T-430, zirconium oxide coated 304); aerosol purity, yield and recovery by HPLC; conditions: for Purity of the drug aerosol particles: peak about 350° C.
[2] = Vaporization of eletriptan film from heat-treated and non-treated 304 stainless steel foil; aerosol purity, yield and recovery by HPLC; assay type: physicochemical; conditions: for mass recovered from the filter / percent yield (recovered from the filter) / total mass recovered from the filter, test apparatus and substrate / Purity of the drug aerosol particles: film thickness 4.2 μm, 2.26 mg applied; for Purity of the drug aerosol particles: peak about 450° C.
[3] = Vaporization of bumetanide film from heat-treated, nitric acid-treated and non-treated 304 stainless steel foil; aerosol purity, yield and recovery by HPLC; conditions: for mass recovered from the filter / percent yield (recovered from the filter) / total mass recovered from the filter, test apparatus and substrate / Purity of the drug aerosol particles: coating 1.4 μm, 0.77 mg applied; for Purity of the drug aerosol particles: peak about 320° C.
[4] = Vaporization of budesonide film from clean and treated steel foils 304, T-430 and zirconium oxide coated 304; aerosol purity, yield and recovery by HPLC; assay type: physicochemical; conditions: in all cases (all foils of Example 5)
Source text: Generation of budesonide aerosol from clean and treated steel foils 304 and T-430. […] All foils were dip-coated with a budesonide solution in dichloromethane.

[5] = 0.5 μm coating on the heat-treated substrate
[6] = 1.5 μm coating on the non-treated substrate
[7] = heat-treated substrate 304, film thickness 0.5 μm, 0.253 mg applied
[8] = heat-treated substrate 304, film thickness 1.5 μm, 0.443 mg applied
[9] = non-treated substrate 304, film thickness 0.9 μm, 0.485 mg applied
[10] = non-treated substrate T-430, film thickness 1.3 μm, 0.68 mg applied
[11] = substrate 304 (treatment not stated), film thickness 1.2 μm, 0.65 mg applied
[12] = zirconium oxide coated substrate 304, film thickness 0.8 μm, 0.44 mg applied
[13] = acid-treated (nitric acid) substrate

aerosol particles yielded [1, 5]: about 0.3 mg | coated dose emitted from the test apparatus [1, 5]: 97%-100 | aerosol particles yielded [1, 6]: 0.2 mg | coated dose emitted from the test apparatus [1, 6]: about 25% | purity of thermal vapor ([1]; heat-treated 304 substrate, film thickness about 0.2 μm (FIG. 6)): about 93% | change of aerosol purity (in words) ([1]; heat-treated T-430 foils versus non-treated T-430): no marked improvement | mass recovered from the filter [1, 7]: 0.253 mg | percent yield (recovered from the filter) [1, 7]: 100% | total mass recovered from the test apparatus and substrate [1, 7]: 0.253 mg | Purity of the drug aerosol particles [1, 7]: 94.4% | mass recovered from the filter [1, 8]: 0.255 mg | percent yield (recovered from the filter) [1, 8]: 57.5% | total mass recovered from the test apparatus and substrate [1, 8]: 0.265 mg | Purity of the drug aerosol particles [1, 8]: 76.5% | purity of thermal vapor ([1]; heat-treated substrate, film thickness about 0.2 or 0.5 μm): about 93% | purity of thermal vapor ([1]; heat-treated substrate, film thickness about 2.6 μm): 83% | quantity of drug remaining on the foil after vaporization ([1]; in all cases (all foils of Example 1)): less than 15 % of the loaded dose | purity of thermal vapor ([1]; non-treated 304 substrate, film thickness about 0.2 μm (FIG. 6)): about 50% | mass recovered from the filter [1, 9]: 0.206 mg | percent yield (recovered from the filter) [1, 9]: 42.4% | total mass recovered from the test apparatus and substrate [1, 9]: 0.210 mg | Purity of the drug aerosol particles [1, 9]: 36.3% | mass recovered from the filter [1, 10]: 0.47 mg | percent yield (recovered from the filter) [1, 10]: 69.1% | total mass recovered from the test apparatus and substrate [1, 10]: 0.51 mg | Purity of the drug aerosol particles [1, 10]: 82.8% | purity of thermal vapor ([1]; non-treated substrate, film thickness about 1.5 μm): 38% | mass recovered from the filter [1, 11]: 0.161 mg | percent yield (recovered from the filter) [1, 11]: 24.7% | total mass recovered from the test apparatus and substrate [1, 11]: 0.172 mg | Purity of the drug aerosol particles [1, 11]: 30.2% | mass recovered from the filter [1, 12]: 0.246 mg | percent yield (recovered from the filter) [1, 12]: 55.9% | total mass recovered from the test apparatus and substrate [1, 12]: 0.31 mg | Purity of the drug aerosol particles [1, 12]: 90.0%
SMILES: CC1(C)O[C@@H]2C[C@H]3[C@@H]4C[C@H](F)C5=CC(=O)C=C[C@]5(C)[C@H]4[C@@H](O)C[C@]3(C)[C@]2(C(=O)CO)O1 [flunisolide]
vapor purity (in words) ([1]; clean, non-treated T-430 steel foil, compared with non-treated 304 (FIG. 7)): good vapor purities; also recorded: improved purities; also recorded: very good purities | change of aerosol purity (in words) ([1]; heat-treated versus non-treated 304 substrates, films 0.2 μm to 2.6 μm (FIG. 6)): marked improvement; also recorded: marked increase | vapor purity (in words) ([1]; zirconium oxide coated 304 steel foil, without heat treatment (FIG. 7)): good aerosol purities; also recorded: improved purities; also recorded: very good vapor purities

mass recovered from the filter ([2]; heat-treated 304 substrate): 1.78 mg | percent yield (recovered from the filter) ([2]; heat-treated 304 substrate): 78.9% | total mass recovered from the filter, test apparatus and substrate ([2]; heat-treated 304 substrate): 1.79 mg | Purity of the drug aerosol particles ([2]; heat-treated 304 substrate): 95.6% | change of aerosol purity (in words) ([2]; heat-treated versus non-treated foils, films between 4.0 and 9.5 μm (FIG. 8)): increase | quantity of drug remaining on the foil after vaporization ([2]; in all cases (all foils of Example 2)): less than 15 % of the loaded dose | mass recovered from the filter ([2]; non-treated 304 substrate): 1.647 mg | percent yield (recovered from the filter) ([2]; non-treated 304 substrate): 72.9% | total mass recovered from the filter, test apparatus and substrate ([2]; non-treated 304 substrate): 1.65 mg | Purity of the drug aerosol particles ([2]; non-treated 304 substrate): 92.8%
SMILES: CN1CCC[C@@H]1Cc1c[nH]c2ccc(CCS(=O)(=O)c3ccccc3)cc12 [eletriptan]

mass recovered from the filter [3, 13]: 0.41 mg | percent yield (recovered from the filter) [3, 13]: 53% | total mass recovered from the filter, test apparatus and substrate [3, 13]: 0.42 mg | Purity of the drug aerosol particles [3, 13]: 98.3% | Purity of the drug aerosol particles ([3]; heat-treated substrate (350° C., 6 hours)): 99.3% | mass recovered from the filter ([3]; heat-treated substrate): 0.40 mg | percent yield (recovered from the filter) ([3]; heat-treated substrate): 52% | total mass recovered from the filter, test apparatus and substrate ([3]; heat-treated substrate): 0.41 mg | quantity of drug remaining on the foil after vaporization ([3]; in all cases (all foils of Example 4)): less than 5 % of the loaded dose | mass recovered from the filter ([3]; non-treated substrate): 0.37 mg | percent yield (recovered from the filter) ([3]; non-treated substrate): 48% | total mass recovered from the filter, test apparatus and substrate ([3]; non-treated substrate): 0.37 mg | Purity of the drug aerosol particles ([3]; non-treated substrate): 97.9%
SMILES: CCCCNc1cc(C(=O)O)cc(S(N)(=O)=O)c1Oc1ccccc1 [bumetanide]

quantity of drug remaining on the foil after vaporization [4]: less than 5 % of the loaded dose
SMILES: CCCC1O[C@@H]2C[C@H]3[C@@H]4CCC5=CC(=O)C=C[C@]5(C)[C@H]4[C@@H](O)C[C@]3(C)[C@]2(C(=O)CO)O1 (some centres unmarked) [budesonide]
